The structures appear in SMILES notation. Where a name gives a salt, the structure may show the parent alone.

This is an account of results in patent US4404138A, “3-[2-(Azabicyclo) ethyl]-1,2,3,4-tetrahydro-5H-[1]benzopyrano[3,4-c]pyridin-5-ones” (Warner-Lambert Company, priority 1982, dated 1983).

The test system of the experiment is Conscious guinea pigs exposed to an aerosol of methacholine. The experiment is described as follows: Methacholine aerosol collapse time in conscious guinea pigs (anticholinergic test). Type of experiment: in vivo. The conditions noted are these: collapse time; 25 mg/kg intraperitoneally; 10 minutes methacholine aerosol; Control 1.9 to 2.0. How it is done:
Conscious guinea pigs, six at a time, are put into a sealed chamber and exposed for 10 minutes to an aerosol of methacholine.
With `O=c1oc2cc3c(cc2c2c1CN(CCN1CC4CCC(CC4)C1)CC2)OCO3` [R1+R2=OCH2O, R3=H, X=drawing 10, 3-[2-(3-Azabicyclo[3.2.2]non-3-yl)ethyl]-1,2,3,4-tetrahydro-5H-[1,3]benzodioxolo[5',6':5,6]pyrano[3,4-c]pyridin-5-one], the “(Minutes Protection)” value is 2.3 min. For `Cc1cc2oc(=O)c3c(c2cc1Cl)CCN(CCN1CC2CCC(CC2)C1)C3` [R1=Cl, R2=Me, R3=H, X=drawing 10, 3-[2-(3-Azabicyclo[3.2.2]non-3-yl)ethyl]-9-chloro-1,2,3,4-tetrahydro-8-methyl-5H-[1]benzopyrano[3,4-c]pyridin-5-one], the “(Minutes Protection)” value stood at 2.1 min. The same measure for `Cc1cc2oc(=O)c3c(c2cc1Cl)CCN(CCN1CC2CCCC(C2)C1)C3` [R1=Cl, R2=Me, R3=H, X=drawing 12]: 2.6 min; for `CCOc1cc2oc(=O)c3c(c2cc1OCC)CCN(CCN1CC2CCC(CC2)C1)C3` [R1=EtO, R2=EtO, R3=H, X=drawing 10, 3-[2-(3-Azabicyclo[3.2.2]non-3-yl)ethyl]-1,2,3,4-tetrahydro-8,9-diethoxy-5H-[1]benzopyrano[3,4-c]pyridin-5-one]: 6.3 min. Regarding `O=c1oc2c(ccc3ccccc32)c2c1CN(CCN1CC3CCC(CC3)C1)CC2` [R1=H, R2+R3=CH CHCHCH, X=drawing 10, 2-[2-(3-Azabicyclo[3.2.2]non-3-yl)ethyl]-1,2,3,4-tetrahydro-12H-naphtho[2',1',:5,6]pyrano[3,4-c]pyridin-12-one dihydrochloride], the “(Minutes Protection)” value worked out at 2.7 min. As for `CC(C)c1ccc2c3c(c(=O)oc2c1)CN(CCN1CC2CCC(CC2)C1)CC3.Cl.Cl` [R1=H, R2=CHMe2, R3=H, X=drawing 10, 3-[2-(3-Azabicyclo[3.2.2]non-3-yl)ethyl]-1,2,3,4-tetrahydro-8-(1-methylethyl)-5H-[1]benzopyrano[3,4-c]pyridin-5-one dihydrochloride], the “(Minutes Protection)” value amounted to 6.2 min. Turning to `CC(C)(C)c1ccc2c3c(c(=O)oc2c1)CN(CCN1CC2CCC(CC2)C1)CC3.Cl.Cl` [R1=H, R2=CMe3, R3=H, X=drawing 10, 3-[2-(3-Azabicyclo[3.2.2]non-3-yl)ethyl]-8-(1,1-dimethylethyl)-1,2,3,4-tetrahydro-5H-[1]benzopyrano[3,4-c]pyridin-5-one, dihydrochloride], the “(Minutes Protection)” value was 3.4 min. Regarding `CCc1ccc2c3c(c(=O)oc2c1)CN(CCN1CC2CCC(CC2)C1)CC3.Cl.Cl` [R1=H, R2=Et, R3=H, X=drawing 10, 3-(2-(3-Azabicyclo[3,2,2]non-3-yl)ethyl]-8-ethyl-1,2,3,4-tetrahydro-5H-benzopyrano[3,4-c]pyridin-5-one, dihydrochloride], the “(Minutes Protection)” value is 6.8 min.

As for `O=c1oc2ccccc2c2c1CN(CCN1CC3CCC(CC3)C1)CC2` [R1=H, R2=H, R3=H, X=drawing 10, 3-[2-(3-Azabicyclo[3.2.2]non-3-yl)ethyl]-1,2,3,4-tetrahydro-5H-[1]benzopyrano[3,4-c]pyridin-5-one], the “(Minutes Protection)” value was determined as 5.2 min. As for `O=c1oc2ccccc2c2c1CN(CCN1CC3CCCC(C3)C1)CC2` [R1=H, R2=H, R3=H, X=drawing 12, 3-[2-(3-Azabicyclo[3.3.1]non-3-yl)ethyl]-1,2,3,4-tetrahydro-5H-[1]benzopyrano[3,4-c]pyridin-5-one], the “(Minutes Protection)” value was 3.3 min. Under `Cc1ccc2c3c(c(=O)oc2c1)CN(CCN1CC2CCC(CC2)C1)CC3` [R1=H, R2=Me, R3=H, X=drawing 10, 3-[2-(3-Azabicyclo[3.2.2]non-3-yl)ethyl]-1,2,3,4-tetrahydro-8-methyl-5H-[1]benzopyrano[3,4-c]pyridin-5-one] stands 5.0 min; under `Cc1ccc2c3c(c(=O)oc2c1)CN(CCN1CC2CCC1CC2)CC3` [R1=H, R2=Me, R3=H, X=drawing 11, 3-[2-(2-Azabicyclo[2.2.2]oct-2-yl)ethyl]-1,2,3,4-tetrahydro-8-methyl-5H-[1]benzopyrano[3,4-c]pyridin-5-one], 2.3 min.
